Experimental data: publication PMC6116703, “Ethenesulfonyl fluoride derivatives as telomerase inhibitors: structure-based design, SAR, and anticancer evaluation in vitro” (Journal of Enzyme Inhibition and Medicinal Chemistry, 2018)
Like-named read-outs stand apart in the source and are kept apart here.

Legend:
telomerase = target: T1, telomerase (Homo sapiens, UniProt O14746); assay: Telomerase activity TRAP-PCR-ELISA assay (A375 cell extract); format: biochemical; details: IC50 inhibitory activity against telomerase, TRAP-PCR-ELISA, A375 cells, 24 h treatment
T1 construct: endogenous in cells; host or cells: A375 human melanoma cells
Protocol: Thirty-six compounds were tested in a search for inhibitors of telomerase activity using the TRAP-PCR-ELISA assay. In detail, the A375 cells were firstly maintained in RPMI 1640 buffer (Hyclone, Miami, FL), supplemented with 10% fetal bovineserum (GIBCO, New York, NY), streptomycin (0.1 mg/mL) and penicillin (100 IU/mL) at 37 °C in a humidified atmosphere containing 5% CO2. After trypsinisation, 5 × 10^4 cultured cells in logarithmic growth were seeded into T25 flasks (Corning, New York, NY) and cultured to allow to adherence. […] After 24 h treatment, the cells were harvested by cell scraper orderly followed by washing once with PBS. The cells were lysed in 150 µL RIPA cell lysis buffer (Santa Cruz, Santa Cruz, CA), and incubated on ice for 30 min. The cellular supernatants were obtained via centrifugation at 12,000g for 20 min at 4 °C and stored at –80 °C. The TRAP-PCR-ELISA assay was performed using a telomerase detection kit (Roche, Basel, Switzerland) according to the manufacturer’s protocol. In brief, 2 µL of cell extracts were mixed with 48 µL TRAP reaction mixtures. TRAP primers and Taq polymerase are incubated at 25 °C for 30 min. PCR was then initiated at 94 °C, 120 s for predenaturation and performed using 35 cycles each consisting of 94 °C for 30 s, 50 °C for 30 s, 72 °C for 90 s. Then 20 µL of PCR products were hybridised to a digoxigenin (DIG)-labelled telomeric repeat specific detection probe. And the PCR products were immobilised via the biotin-labelled primer to a streptavidin-coated microtiter plate subsequently. The immobilised DNA fragments were detected with a peroxidase-conjugated anti-DIG antibody and visualised following the addition of the stop regent. The microtitre plate was assessed on TECAN Infinite M200 microplate reader (Mannedorf, Switzerland) at a wavelength of 490 nm, and the final value were presented as mean ± SD[23].

[1] = tested on: human gastric cancer cells SGC-7901; assay: Cell proliferation (MTT) assay, SGC-7901; format: cell-based; details: read-out: IC50 SGC-7901
Protocol: (§1) The antiproliferative activities evaluation was conducted by using a modified procedure as described in the literature. Briefly, target tumour cells were grown to log phase in RPMI 1640 medium supplemented with 10% fetal bovine serum. After diluting to 3 × 10^4 cells mL^−1 with the complete medium, 100 µL of the obtained cell suspension was added to each well of 96-well culture plates. The subsequent incubation was performed at 37 °C, 5% CO2 atmosphere for 24 h before subjecting to antiproliferation assessment. The tested samples at pre-set concentrations were added to six wells with Doxorubicin (AMD) co-assayed as a positive reference. After 48 h of exposure period, 25 µL of PBS containing 2.5 mg·mL^−1 of MTT was added to each well. After 4 h, the medium was replaced by 150 µL DMSO to dissolve the purple formazan crystals produced. The absorbance at 570 nm of each well was measured using an ELISA plate reader. The data represented the mean of three experiments in triplicate and were expressed as means ± SD using Student’s test.

[2] = tested on: human hepatoma cell SMMC-7721; assay: Cell proliferation (MTT) assay, SMMC-7721; format: cell-based; details: read-out: IC50 SMMC-7721
Protocol: as §1

[3] = tested on: human breast cancer cell MDA-MB-231; assay: Cell proliferation (MTT) assay, MDA-MB-231; format: cell-based
Protocol: as §1

human melanoma cell A375 = assay: Cell proliferation (MTT) assay, A375; format: cell-based
Protocol: as §1

[4] = tested on: human gastric cancer cells MGC-803; assay: Cell proliferation (MTT) assay, MGC-803; format: cell-based; details: read-out: IC50 MGC-803
Protocol: as §1

[5] = Homo sapiens, MDA-MB-231, 48 h, read-out: IC50 MDA-MB-231, antiproliferative, MTT, 48 h exposure
[6] = Homo sapiens, A-375, 48 h, read-out: IC50 A375, antiproliferative, MTT, 48 h exposure
[7] = antiproliferative, MTT, 48 h exposure
[8] = antiproliferative, MTT, 48 h exposure, read-out: IC50 MDA-MB-231
[9] = antiproliferative, MTT, 48 h exposure, read-out: IC50 A375

T1 sequence (O14746 whole entry): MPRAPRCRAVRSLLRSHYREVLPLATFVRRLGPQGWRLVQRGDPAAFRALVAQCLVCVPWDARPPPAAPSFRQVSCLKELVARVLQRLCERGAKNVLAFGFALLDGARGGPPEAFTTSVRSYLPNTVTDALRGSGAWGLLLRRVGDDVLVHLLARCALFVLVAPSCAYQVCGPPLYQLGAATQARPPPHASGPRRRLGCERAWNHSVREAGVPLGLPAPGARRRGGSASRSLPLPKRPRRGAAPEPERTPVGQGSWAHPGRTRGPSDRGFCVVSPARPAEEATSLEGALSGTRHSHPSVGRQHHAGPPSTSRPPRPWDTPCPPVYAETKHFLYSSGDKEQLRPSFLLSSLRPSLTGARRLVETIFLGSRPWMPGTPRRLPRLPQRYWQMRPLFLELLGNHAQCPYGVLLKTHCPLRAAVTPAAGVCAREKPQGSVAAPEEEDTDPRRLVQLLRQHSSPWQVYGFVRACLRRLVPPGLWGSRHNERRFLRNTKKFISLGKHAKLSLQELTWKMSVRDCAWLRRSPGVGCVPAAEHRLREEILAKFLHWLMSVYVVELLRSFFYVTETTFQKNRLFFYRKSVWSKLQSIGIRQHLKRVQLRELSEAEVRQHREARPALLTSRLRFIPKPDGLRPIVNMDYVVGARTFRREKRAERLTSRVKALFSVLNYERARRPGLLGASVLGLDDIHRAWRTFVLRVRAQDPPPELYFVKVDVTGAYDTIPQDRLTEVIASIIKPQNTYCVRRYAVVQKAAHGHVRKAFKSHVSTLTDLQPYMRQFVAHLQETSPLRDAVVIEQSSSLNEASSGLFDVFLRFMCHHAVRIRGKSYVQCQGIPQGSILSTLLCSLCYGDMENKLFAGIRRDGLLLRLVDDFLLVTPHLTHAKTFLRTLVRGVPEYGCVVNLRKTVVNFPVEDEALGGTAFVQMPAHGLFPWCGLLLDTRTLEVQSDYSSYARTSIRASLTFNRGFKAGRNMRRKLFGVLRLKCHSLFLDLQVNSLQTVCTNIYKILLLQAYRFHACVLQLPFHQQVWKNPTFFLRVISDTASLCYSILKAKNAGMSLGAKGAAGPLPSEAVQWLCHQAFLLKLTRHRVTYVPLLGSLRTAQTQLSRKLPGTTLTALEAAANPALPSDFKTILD

| SMILES | IC50 (telomerase) [µM] | IC50 ([2]; Homo sapiens, SMMC-7721, 48 h) [µM] | IC50 [3, 5] [µM] | IC50 (human melanoma cell A375; [6]) [µM] | IC50 [3, 8] [µM] | IC50 (human melanoma cell A375; [9]) [µM] | IC50 [2, 7] [µM] | IC50 [4, 7] [µM] | other results |
| --- | --- | --- | --- | --- | --- | --- | --- | --- | --- |
| O=S(=O)(F)/C=C/c1cc(Cl)cc(Cl)c1 [Compound 69] | 4.22 ± 0.71 | 11.5 ± 0.39 | 7.95 ± 0.4 | 8.79 ± 0.61 |  |  |  |  | IC50 ([1]; Homo sapiens, SGC-7901, 48 h): 36.8 ± 1.25 µM; IC50 ([4]; Homo sapiens, MGC-803, 48 h): 25.1 ± 0.54 µM |
| O=S(=O)(F)/C=C/C=C/c1ccccc1 [Compound 48] | 40.2 ± 1.3 | 51 ± 1.91 | 39.7 ± 1.39 | 27.4 ± 1.5 |  |  |  |  | IC50 ([1]; Homo sapiens, SGC-7901, 48 h): 49.1 ± 1.39 µM |
| O=S(=O)(F)/C=C/c1ccccc1Br [Compound 76] |  |  |  |  | 36 ± 1.2 | 18 ± 1.09 |  |  | IC50 [1, 7]: 50.2 ± 1.79 µM |
| O=S(=O)(F)/C=C/c1cccc(I)c1 [Compound 72] |  |  |  |  | 22.6 ± 1 | 13 ± 0.77 | 16.1 ± 0.91 | 44.9 ± 1.13 |  |
| O=S(=O)(F)/C=C/c1ccc(OC(F)(F)F)cc1 [Compound 9] |  |  |  |  | 36.5 ± 2.56 | 24.1 ± 0.99 | 9.04 ± 0.99 | 38.6 ± 1.22 |  |
| COc1cc(/C=C/S(=O)(=O)F)cc(OC)c1 [Compound 67] | 1.87 ± 0.47 | 15 ± 0.6 | 12.1 ± 0.37 | 8.29 ± 0.42 |  |  |  |  | IC50 ([1]; Homo sapiens, SGC-7901, 48 h): 50.3 ± 1.17 µM; IC50 ([4]; Homo sapiens, MGC-803, 48 h): 16.1 ± 0.82 µM |
| O=S(=O)(F)/C=C/c1cccc2c1sc1ccccc12 [Compound 43] |  |  |  |  | 44 ± 1.2 | 38.6 ± 0.61 | 34.5 ± 0.77 |  | IC50 [1, 7]: 24.8 ± 0.89 µM |
| COc1ccc(Cl)cc1/C=C/S(=O)(=O)F [Compound 71] | 6.08 ± 1.3 | 23.2 ± 0.78 | 8.09 ± 0.52 | 8.65 ± 0.33 |  |  |  |  | IC50 ([4]; Homo sapiens, MGC-803, 48 h): 20.8 ± 0.79 µM |
| O=S(=O)(F)/C=C/c1ccc(C(F)(F)F)cc1 [Compound 10] |  |  |  |  | 29.8 ± 2.31 | 5.43 ± 0.4 | 40.1 ± 1.66 | 24.9 ± 0.82 |  |
| O=S(=O)(F)/C=C/c1ccccc1F [Compound 73] |  |  |  |  | 25.6 ± 0.97 | 11.2 ± 0.81 |  | 57.7 ± 1.44 |  |
| O=S(=O)(F)/C=C/c1ccc(Br)cc1 [Compound 8] | 4.33 ± 0.77 | 10.7 ± 0.8 | 17.5 ± 1.77 | 9.12 ± 0.82 |  |  |  |  | IC50 ([4]; Homo sapiens, MGC-803, 48 h): 17.2 ± 0.41 µM |
| CC(=O)c1cccc(/C=C/S(=O)(=O)F)c1 [Compound 21] |  |  |  |  | 23.1 ± 2.78 | 16.6 ± 0.91 | 11.8 ± 0.6 |  | IC50 [1, 7]: 30.8 ± 2 µM |
| Cc1ccc(/C=C/C=C/S(=O)(=O)F)cc1 [Compound 49] |  |  |  |  | 35.2 ± 1.4 | 32.8 ± 1.44 | 48.5 ± 1.65 |  | IC50 [1, 7]: 49.79 ± 0.47 µM |
| O=S(=O)(F)/C=C/c1ccc(Cl)cc1 [Compound 7] | 3.02 ± 0.44 | 13.3 ± 0.39 | 12.3 ± 0.64 | 9.84 ± 0.78 |  |  |  |  | IC50 ([4]; Homo sapiens, MGC-803, 48 h): 12.9 ± 0.3 µM |
| Cc1ccc(S(=O)(=O)n2cc(/C=C/S(=O)(=O)F)cn2)cc1 [Compound 61] |  | 28.2 ± 1.49 | 26.9 ± 1.2 | 27.3 ± 1 |  |  |  |  | IC50 ([4]; Homo sapiens, MGC-803, 48 h): 27.1 ± 1.03 µM |
| CCc1ccc(/C=C/S(=O)(=O)F)cc1 [Compound 2] |  |  |  |  | 58.6 ± 1.78 | 22.8 ± 0.71 | 28.5 ± 1.47 | 28.6 ± 1.27 |  |
| CS(=O)(=O)c1ccc(/C=C/S(=O)(=O)F)cc1 [Compound 66] |  |  |  |  | 30.3 ± 1.22 | 8.56 ± 0.49 | 52 ± 1.7 | 19.6 ± 1.17 |  |
| O=S(=O)(F)/C=C/c1ccc(O)cc1 [Compound 33] |  |  |  |  | 19 ± 0.65 | 4.96 ± 0.51 | 26.2 ± 0.39 | 35.9 ± 0.79 |  |
| CC(C)c1cccc(/C=C/S(=O)(=O)F)c1 [Compound 74] |  |  |  |  | 34.7 ± 1.2 | 26.8 ± 1.22 |  | 35.3 ± 1.25 | IC50 [1, 7]: 31.8 ± 0.82 µM |
| COc1cc(/C=C/C=C/S(=O)(=O)F)cc(OC)c1 [Compound 56] | 3.2 ± 0.55 | 19.3 ± 0.82 | 12.2 ± 0.92 | 6.92 ± 0.44 |  |  |  |  | IC50 ([1]; Homo sapiens, SGC-7901, 48 h): 34.5 ± 1.04 µM |
| CCOC(=O)c1cccc(/C=C/S(=O)(=O)F)c1 [Compound 77] |  |  |  |  | 19.4 ± 0.79 | 13.7 ± 1.29 | 23.6 ± 1.45 | 51.8 ± 0.87 |  |
| O=S(=O)(F)/C=C/c1cccc(F)c1 [Compound 18] | 1.09 ± 0.11 | 24.8 ± 1.58 | 5.24 ± 0.4 | ~3 |  |  |  |  | IC50 (human melanoma cell A375; read-out: IC50 A375, antiproliferative, MTT, 48 h exposure): 3.82 ± 0.31 µM |
| O=S(=O)(F)/C=C/c1cccs1 [Compound 40] |  |  |  |  | 18.3 ± 0.8 | 6.73 ± 0.5 | 35.6 ± 0.55 |  | IC50 [1, 7]: 51.3 ± 2.55 µM |
| O=S(=O)(F)/C=C/c1cnn(-c2ccccc2)c1 [Compound 47] | 2.13 ± 0.6 | 21.2 ± 0.49 | 10.2 ± 0.44 | 9.04 ± 0.29 |  |  |  |  |  |
| O=S(=O)(F)/C=C/c1ccc(F)cc1 [Compound 6] | 2.98 ± 0.59 | 15.9 ± 0.35 |  | 5.99 ± 0.49 |  |  |  |  | IC50 ([3]; read-out: IC50 MDA-MB-231, antiproliferative, MTT, 48 h exposure): 9.2 ± 1.27 µM; IC50 ([4]; Homo sapiens, MGC-803, 48 h): 44.2 ± 1.25 µM |
| O=S(=O)(F)/C=C/c1cc(Cl)nc(Cl)c1 [Compound 80] | 49.3 ± 2.55 |  |  |  |  |  |  |  | IC50 ([1]; Homo sapiens, SGC-7901, 48 h): 26.8 ± 1.01 µM |
| O=S(=O)(F)/C=C/c1cc(C(F)(F)F)cc(C(F)(F)F)c1 [Compound 68] |  |  |  |  | 21.2 ± 0.8 | 19.7 ± 1 |  | 37.4 ± 1.35 |  |
| COc1cccc2c1C(=O)c1c(O)c3c(c(O)c1C2=O)C[C@@](O)(C(=O)CO)C[C@@H]3O[C@H]1C[C@H](N)[C@H](O)[C@H](C)O1 [AMD, Doxorubicin, reference compound] |  |  |  |  |  |  |  |  | IC50 ([1]; Homo sapiens, SGC-7901, antiproliferative, MTT, 48 h exposure): 0.92 ± 0.08 µM; IC50 ([2]; Homo sapiens, SMMC-7721, antiproliferative, MTT, 48 h exposure): 1.05 ± 0.09 µM; IC50 ([3]; Homo sapiens, MDA-MB-231, 48 h, antiproliferative, MTT, 48 h exposure, read-out: IC50 MDA-MB-231): 0.81 ± 0.11 µM; IC50 (human melanoma cell A375; Homo sapiens, A-375, 48 h, antiproliferative, MTT, 48 h exposure, read-out: IC50 A375): 0.52 ± 0.14 µM; IC50 ([4]; Homo sapiens, MGC-803, antiproliferative, MTT, 48 h exposure): 0.67 ± 0.08 µM |
| CC(C)(C)c1ccc(/C=C/C=C/S(=O)(=O)F)cc1 [Compound 50] |  |  |  |  | 31.6 ± 1.2 | 20.7 ± 1.39 | 29.1 ± 1.27 |  | IC50 [1, 7]: 26.9 ± 0.56 µM |
